We go through 23 compounds from patent US11839613B2, “Pyrimidine derivatives as PGE2 receptor modulators” (IDORSIA PHARMACEUTICALS LTD, priority 2017, dated 2023).

As usually defined, the IC50 is the concentration at which inhibition is half-maximal.

One assay has as its target EP4 (Homo sapiens (Human), UniProt P35408). In words: hEP4 cAMP assay (BT549 breast cancer cells, HTRF cAMP). Conditions: antagonistic activity, PGE2 6 nM. Type of assay: cell-based. The gist of the method:
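cAMP accumulation quantified by HTRF competition between cellular cAMP and d2-labeled cAMP for cryptate anti-cAMP antibody. Cells: endogenously EP4-expressing BT549, buffer with 2 mM IBMX; 45 min RT compound preincubation preceded 30 min RT challenge with PGE2 at 6 nM final.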
A general note: Cyclic AMP is a second messenger, typically raised through Gs and lowered through Gi signalling.

Another assay deals with EP2 (Homo sapiens (Human), UniProt P43116). Description: hEP2 cAMP assay (SF295 glioblastoma cells, HTRF cAMP). Type of assay: cell-based. Conditions: antagonistic activity. The gist of the method:
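PGE2-driven cAMP accumulation was measured by HTRF in SF295 cells, which express endogenous EP2 only. Cells in assay buffer with 2 mM IBMX were pre-incubated 45 min at RT, then incubated 30 min at RT. Detection used competition between cellular cAMP and d2-cAMP for a cryptate anti-cAMP antibody.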

For the next assay, the target named is PTGER2 (EP2) (Homo sapiens (Human), UniProt P43116). In words: hEP2 b-arrestin assay (PathHunter HEK 293 PTGER2 b-arrestin cells). Type of assay: cell-based. The settings on record: antagonistic activity, beta-arrestin assay; read-out: hEP2 b-arr IC50. The protocol:
Plate is pre-incubated 15 minutes at 37° C. Then five microliters of PGE2 (final conc. 5 μM) are transferred into the assay plate. Plate is incubated 120 minutes at 37° C.
(each concentration is measured in duplicate)

The next assay addresses PTGER4 (EP4) (Homo sapiens (Human), UniProt P35408). Description: cell-based.

Sequence of PTGER4 (EP4) (P35408 whole entry): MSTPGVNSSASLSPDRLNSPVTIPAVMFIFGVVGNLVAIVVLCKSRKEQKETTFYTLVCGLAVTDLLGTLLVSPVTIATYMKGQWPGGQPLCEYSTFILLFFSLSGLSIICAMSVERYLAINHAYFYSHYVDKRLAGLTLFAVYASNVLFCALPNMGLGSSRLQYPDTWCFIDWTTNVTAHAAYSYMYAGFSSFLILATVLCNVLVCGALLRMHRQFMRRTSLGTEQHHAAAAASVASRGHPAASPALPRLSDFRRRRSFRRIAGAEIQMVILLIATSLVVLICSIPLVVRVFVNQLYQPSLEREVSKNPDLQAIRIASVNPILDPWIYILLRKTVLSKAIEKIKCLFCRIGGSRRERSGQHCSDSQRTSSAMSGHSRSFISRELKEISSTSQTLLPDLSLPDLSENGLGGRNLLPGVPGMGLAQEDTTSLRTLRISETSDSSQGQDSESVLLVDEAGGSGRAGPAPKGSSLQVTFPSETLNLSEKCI
Sequence of EP4 (P35408 whole entry): as above
Sequence of EP2 (P43116 whole entry): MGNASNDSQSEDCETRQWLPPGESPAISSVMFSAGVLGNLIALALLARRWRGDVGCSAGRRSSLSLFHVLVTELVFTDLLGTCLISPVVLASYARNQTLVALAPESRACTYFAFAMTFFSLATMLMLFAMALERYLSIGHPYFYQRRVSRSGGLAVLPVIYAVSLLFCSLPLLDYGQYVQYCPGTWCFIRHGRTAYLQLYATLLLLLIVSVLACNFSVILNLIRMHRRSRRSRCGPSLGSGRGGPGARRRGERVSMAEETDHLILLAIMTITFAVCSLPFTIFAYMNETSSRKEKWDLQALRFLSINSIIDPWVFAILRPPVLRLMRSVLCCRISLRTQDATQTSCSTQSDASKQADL
Sequence of PTGER2 (EP2) (P43116 whole entry): as above

Take `Cc1c(CCNc2cc(-c3ccc(C(=O)O)c(OC(F)F)c3)ncn2)ccc2ccccc12` [Ex 83, 2-Difluoromethoxy-4-{6-[2-(1-methyl-naphthalen-2-yl)-ethylamino]-pyrimidin-4-yl}-benzoic acid]: the IC50 against EP4 is 47 nM; against EP2, 70 nM; on PTGER2 (EP2) it was 274 nM; against PTGER4 (EP4), 255 nM.
Consider `COc1cc2c(cc1CCNc1cc(-c3ccc4oc(C(=O)O)cc4c3)ncn1)OCCO2` [Ex 93, 5-{6-[2-(7-Methoxy-2,3-dihydro-benzo[1,4]dioxin-6-yl)-ethylamino]-pyrimidin-4-yl}-benzofuran-2-carboxylic acid], for which the IC50 is 118 nM on EP4, 85 nM at EP2, 275 nM at PTGER2 (EP2) and 1260 nM on PTGER4 (EP4).
For `C#Cc1cc2ccccc2cc1CCNc1cc(-c2ccc(C(=O)O)c(OCC)c2)ncn1` [Ex 105, 2-Ethoxy-4-{6-[2-(3-ethynyl-naphthalen-2-yl)-ethylamino]-pyrimidin-4-yl}-benzoic acid] the same measures were 73 nM, 76 nM, 40 nM and 53 nM.
For `CSc1cc(-c2cc(NCCc3cc(Cl)c4sccc4c3)ncn2)ccc1C(=O)O` [Example 360, 4-{6-[2-(7-Chloro-benzo[b]thiophen-5-yl)-ethylamino]-pyrimidin-4-yl}-2-methylsulfanyl-benzoic acid] the same measures were 44 nM, 183 nM, 137 nM and 69 nM.
For `COc1cc2occc2c(C)c1CCNc1cc(-c2ccc(C(=O)O)c(OC3CCC3)c2)ncn1` [Ex 208, 2-Cyclobutoxy-4-{6-[2-(6-methoxy-4-methyl-benzofuran-5-yl)-ethylamino]-pyrimidin-4-yl}-benzoic acid] the same measures were 248 nM, 5 nM, 8 nM and 130 nM.
As to `CCc1nc(-c2cc(NCCc3ccc4ccccc4c3C)ncn2)sc1-c1noc(=O)[nH]1` [Example 353, 3-(4-Ethyl-2-{6-[2-(1-methyl-naphthalen-2-yl)-ethylamino]-pyrimidin-4-yl}-thiazol-5-yl)-[1,2,4]oxadiazol-5(4H)-one], the IC50 worked out at 109 nM on EP4, 115 nM on EP2, 237 nM at PTGER2 (EP2) and 9 nM on PTGER4 (EP4).
For `CCCc1cc(-c2cc(NCCc3ccc4ccccc4c3C)ncn2)cc(F)c1C(=O)O` [Ex 74, 2-Fluoro-4-{6-[2-(1-methyl-naphthalen-2-yl)-ethylamino]-pyrimidin-4-yl}-6-propyl-benzoic acid] the same measures were 40 nM, 151 nM, 450 nM and 257 nM.
In the same order, the values of `CCOc1cc(-c2cc(NCCc3cc4ccoc4cc3OC)ncn2)ccc1C(=O)O` [Ex 151, 2-Ethoxy-4-{6-[2-(6-methoxy-benzofuran-5-yl)-ethylamino]-pyrimidin-4-yl}-benzoic acid] are 145 nM, 35 nM, 32 nM and 618 nM.
For `CCOc1cc2c(cc1CCNc1cc(-c3ccc(C(=O)O)c(OCC)c3)ncn1)OCCO2` [Ex 261, 2-Ethoxy-4-{6-[2-(7-ethoxy-2,3-dihydro-benzo[1,4]dioxin-6-yl)-ethylamino]-pyrimidin-4-yl}-benzoic acid] the same measures were 406 nM, 20 nM, 53 nM and 396 nM.
`CCOc1cc(-c2cc(NCCc3ccc4ccccc4c3C)ncn2)sc1C(=O)NS(C)(=O)=O` [Example 355, N-(3-Ethoxy-5-{6-[2-(1-methyl-naphthalen-2-yl)-ethylamino]-pyrimidin-4-yl}-thiophene-2-carbonyl)-methanesulfonamide]: the IC50 against EP4 came to 95 nM; on EP2, 46 nM; at PTGER2 (EP2), 55 nM; against PTGER4 (EP4) it was 29 nM.
For `CCOc1cc(-c2cc(NCCc3cc4cccnc4cc3F)ncn2)sc1-c1nnn[nH]1` [Example 349, {6-[4-Ethoxy-5-(1H-tetrazol-5-yl)-thiophen-2-yl]-pyrimidin-4-yl}-[2-(7-fluoro-quinolin-6-yl)-ethyl]-amine] the same measures were 14 nM, 103 nM, 109 nM and 4 nM.
`CCOc1cc(-c2cc(NCCc3ccc4cc[nH]c4c3)ncn2)sc1-c1noc(=O)[nH]1` [Example 343, 3-(3-Ethoxy-5-{6-[2-(1H-indol-6-yl)-ethylamino]-pyrimidin-4-yl}-thiophen-2-yl)-[1,2,4]oxadiazol-5(4H)-one]: the IC50 against EP4 was 12 nM; against EP2, 23 nM; on PTGER2 (EP2), 9 nM; against PTGER4 (EP4) it was 2 nM.
For the compound `CSc1cc(-c2cc(NCCc3ccc4sccc4c3)ncn2)ccc1C(=O)O` [Ex 132, 4-[6-(2-Benzo[b]thiophen-5-yl-ethylamino)-pyrimidin-4-yl]-2-methylsulfanyl-benzoic acid], the IC50 stood at 107 nM against EP4, 66 nM against EP2, 82 nM on PTGER2 (EP2) and 161 nM against PTGER4 (EP4).
In the same order, the values of `CCOc1cc(-c2cc(NCCc3cc4ccsc4cc3OC)ncn2)sc1-c1noc(=O)[nH]1` [Example 342, 3-(3-Ethoxy-5-{6-[2-(6-methoxy-benzo[b]thiophen-5-yl)-ethylamino]-pyrimidin-4-yl}-thiophen-2-yl)-[1,2,4]oxadiazol-5(4H)-one] are 19 nM, 20 nM, 7 nM and 3 nM.
For `CCOc1cc2c(cc1CCNc1cc(-c3ccc(CC(=O)O)c(OCC)c3)ncn1)OCCO2` [Ex 192, (2-Ethoxy-4-{6-[2-(7-ethoxy-2,3-dihydro-benzo[1,4]dioxin-6-yl)-ethylamino]-pyrimidin-4-yl}-phenyl)-acetic acid] the same measures were 210 nM, 69 nM, 76 nM and 153 nM.
In the same order, the values of `CCOc1cc(-c2cc(NCCc3cc4ccccc4cc3C)ncn2)sc1C(=O)O` [Ex 40, 3-Ethoxy-5-{6-[2-(3-methyl-naphthalen-2-yl)-ethylamino]-pyrimidin-4-yl}-thiophene-2-carboxylic acid] are 20 nM, 228 nM, 126 nM and 25 nM.
For the compound `COc1cc2c(cc1CCNc1cc(-c3ccc(C(=O)O)c(SC)c3)ncn1)OCCO2` [Ex 116, 4-{6-[2-(7-Methoxy-2,3-dihydro-benzo[1,4]dioxin-6-yl)-ethylamino]-pyrimidin-4-yl}-2-methylsulfanyl-benzoic acid], the IC50 on EP4 is 86 nM; on EP2 it was 23 nM; on PTGER2 (EP2), 76 nM; against PTGER4 (EP4), 135 nM.
In the same order, the values of `CCOc1cc2c(cc1CCNc1cc(-c3ccc(C(=O)O)c(OC4CCC4)c3)ncn1)OCCO2` [Ex 196, 2-Cyclobutoxy-4-{6-[2-(7-ethoxy-2,3-dihydro-benzo[1,4]dioxin-6-yl)-ethylamino]-pyrimidin-4-yl}-benzoic acid] are 217 nM, 37 nM, 21 nM and 199 nM.
Consider `CCOc1cc(-c2cc(NCCc3cc4c(cc3SC)OCCO4)ncn2)sc1C(=O)O` [Ex 78, 3-Ethoxy-5-{6-[2-(7-methylsulfanyl-2,3-dihydro-benzo[1,4]dioxin-6-yl)-ethylamino]-pyrimidin-4-yl}-thiophene-2-carboxylic acid], for which the IC50 against EP4 amounted to 44 nM; at EP2 it was 219 nM; on PTGER2 (EP2) it was 141 nM; against PTGER4 (EP4) it was 21 nM.
For `CCOc1cc(-c2cc(NCCc3c(OC)cc4occc4c3C)ncn2)sc1C(=O)O` [Ex 8, 3-Ethoxy-5-{6-[2-(6-methoxy-4-methyl-benzofuran-5-yl)-ethylamino]-pyrimidin-4-yl}-thiophene-2-carboxylic acid] the same measures were 6 nM, 1 nM, 5 nM and 22 nM.
In the case of `COc1cc2c(cc1CCNc1cc(-c3ccc(C(=O)O)c(SC)c3)ncn1)OCO2` [Ex 277, 4-{6-[2-(6-Methoxy-benzo[1,3]dioxol-5-yl)-ethylamino]-pyrimidin-4-yl}-2-methylsulfanyl-benzoic acid], the IC50 at EP4 was determined as 324 nM; against EP2, 14 nM; on PTGER2 (EP2) it was 51 nM; against PTGER4 (EP4), 437 nM.
In the case of `CCc1nc(-c2cc(NCCc3ccc4ccccc4c3C)ncn2)sc1C(=O)O` [Example 351, 4-Ethyl-2-{6-[2-(1-methyl-naphthalen-2-yl)-ethylamino]-pyrimidin-4-yl}-thiazole-5-carboxylic acid], the IC50 against EP4 worked out at 167 nM; at EP2, 236 nM; on PTGER2 (EP2) it was 475 nM; at PTGER4 (EP4), 79 nM.
For `CCOc1cc(-c2cc(NCCc3ccc4c(c3)OCO4)ncn2)sc1C(=O)O` [Ex 111, 5-[6-(2-Benzo[1,3]dioxol-5-yl-ethylamino)-pyrimidin-4-yl]-3-ethoxy-thiophene-2-carboxylic acid], the IC50 against EP4 is 81 nM; against EP2 it was 49 nM; on PTGER2 (EP2) it was 115 nM; on PTGER4 (EP4), 89 nM.
